Laboratory results from patent US10597388B2, “Pyridazinone herbicides” (FMC CORPORATION, priority 2014, dated 2020).

What was measured:
Experiment in all cases: Test D controlled growth environment herbicide test, pre- and postemergence
Format in all cases: in vivo
[1] = system: pigweed (Amaranthus retroflexus)
How it was run: (§1)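 Pre-emergence: seeds sown in silt loam soil were sprayed with compound in a non-phytotoxic solvent mix containing surfactant. Post-emergence: plants at 2 to 18 cm (1- to 4-leaf stage) in peat moss/vermiculite medium got the same formulation. Visual 0–100 rating versus controls after 14 to 21 d.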

[2] = system: canarygrass (Phalaris minor)
How it was run: as §1

[3] = system: barley, winter (winter barley, Hordeum vulgare)
How it was run: as §1

[4] = system: bluegrass (annual bluegrass, Poa annua)
How it was run: as §1

[5] = system: galium (catchweed bedstraw, Galium aparine)
How it was run: as §1

[6] = system: wheat, spring (spring wheat, Triticum aestivum)
How it was run: as §1

[7] = system: lambsquarters (Chenopodium album)
How it was run: as §1

[8] = system: ryegrass, Italian (Italian ryegrass, Lolium multiflorum)
How it was run: as §1

[9] = system: buckwheat, wild (wild buckwheat, Polygonum convolvulus)
How it was run: as §1

[10] = system: bromegrass, downy (downy bromegrass, Bromus tectorum)
How it was run: as §1

[11] = system: windgrass (Apera spica-venti)
How it was run: as §1

[12] = system: blackgrass (Alopecurus myosuroides)
How it was run: as §1

[13] = system: foxtail, green (green foxtail, Setaria viridis)
How it was run: as §1

[14] = Postemergence, 31 g ai/ha, scale 0 to 100 (0 no effect, 100 complete control)
[15] = Postemergence, 125 g ai/ha, visual rating on scale 0 (no effect) to 100 (complete control), 14 to 21 d
[16] = Postemergence, 250 g ai/ha, scale 0 to 100 (0 no effect, 100 complete control)
[17] = Preemergence, 125 g ai/ha, scale 0 to 100 (0 no effect, 100 complete control)
[18] = Preemergence, 250 g ai/ha, scale 0 to 100, 0 no effect, 100 complete control
[19] = postemergence, 62 g ai/ha, scale 0 to 100, 0 no effect, 100 complete control
[20] = Preemergence, 62 g ai/ha, scale 0 to 100 (0 no effect, 100 complete control)

CCCC(=O)Oc1c(C)nn(C)c(=O)c1-c1c(C)sc2ccc(C)cc12 [Compound 105]
Pigweed plant response rating [1, 14]: 85
Plant response rating, Pigweed [1, 15]: 100
Plant response rating, Pigweed [1, 16]: 100
Plant response rating (scale of 0 to 100), Pigweed ([1]; Preemergence, 31 g ai/ha): 100
Plant response rating (scale of 0 to 100), Pigweed ([1]; Preemergence, 62 g ai/ha): 100
Plant response rating, Pigweed [1, 17]: 100
Plant response rating, Pigweed [1, 18]: 100
Plant response rating, Pigweed [1, 19]: 100
Canarygrass plant response rating [2, 14]: 40
Plant response rating, Canarygrass [2, 15]: 75
Plant response rating, Canarygrass [2, 16]: 80
Plant response rating (scale of 0 to 100), Canarygrass ([2]; Preemergence, 31 g ai/ha): 85
Plant response rating (scale of 0 to 100), Canarygrass ([2]; Preemergence, 62 g ai/ha): 95
Plant response rating, Canarygrass [2, 17]: 95
Plant response rating, Canarygrass [2, 18]: 98
Plant response rating, Canarygrass [2, 19]: 50
Barley, Winter plant response rating [3, 14]: 0
Plant response rating, Barley, Winter [3, 15]: 10
Plant response rating, Barley, Winter [3, 16]: 15
Plant response rating (scale of 0 to 100), Barley, Winter ([3]; Preemergence, 31 g ai/ha): 5
Plant response rating, Barley, Winter [3, 20]: 10
Plant response rating, Barley, Winter [3, 17]: 10
Plant response rating, Barley, Winter [3, 18]: 25
Plant response rating, Barley, Winter [3, 19]: 10
Bluegrass plant response rating [4, 14]: 10
Plant response rating, Bluegrass [4, 15]: 20
Plant response rating, Bluegrass [4, 16]: 25
Plant response rating (scale of 0 to 100), Bluegrass ([4]; Preemergence, 31 g ai/ha): 25
Plant response rating, Bluegrass [4, 20]: 30
Plant response rating, Bluegrass [4, 17]: 60
Plant response rating, Bluegrass [4, 18]: 75
Plant response rating, Bluegrass [4, 19]: 10
Galium plant response rating [5, 14]: 85
Plant response rating, Galium [5, 15]: 95
Plant response rating, Galium [5, 16]: 100
Plant response rating (scale of 0 to 100), Galium ([5]; Preemergence, 31 g ai/ha): 80
Plant response rating (scale of 0 to 100), Galium ([5]; Preemergence, 62 g ai/ha): 95
Plant response rating, Galium [5, 17]: 85
Plant response rating, Galium [5, 18]: 100
Plant response rating, Galium [5, 19]: 95
Wheat, Spring plant response rating [6, 14]: 0
Plant response rating, Wheat, Spring [6, 15]: 20
Plant response rating, Wheat, Spring [6, 16]: 25
Plant response rating (scale of 0 to 100), Wheat, Spring ([6]; Preemergence, 31 g ai/ha): 0
Plant response rating (scale of 0 to 100), Wheat, Spring ([6]; Preemergence, 62 g ai/ha): 0
Plant response rating, Wheat, Spring [6, 17]: 0
Plant response rating, Wheat, Spring [6, 18]: 40
Plant response rating, Wheat, Spring [6, 19]: 10
Lambsquarters plant response rating [7, 14]: 85
Plant response rating, Lambsquarters [7, 15]: 90
Plant response rating, Lambsquarters [7, 16]: 95
Plant response rating (scale of 0 to 100), Lambsquarters ([7]; Preemergence, 31 g ai/ha): 95
Plant response rating (scale of 0 to 100), Lambsquarters ([7]; Preemergence, 62 g ai/ha): 100
Plant response rating, Lambsquarters [7, 17]: 100
Plant response rating, Lambsquarters [7, 18]: 100
Plant response rating, Lambsquarters [7, 19]: 95
Ryegrass, Italian plant response rating [8, 14]: 75
Plant response rating, Ryegrass, Italian [8, 15]: 90
Plant response rating, Ryegrass, Italian [8, 16]: 95
Plant response rating (scale of 0 to 100), Ryegrass, Italian ([8]; Preemergence, 31 g ai/ha): 85
Plant response rating (scale of 0 to 100), Ryegrass, Italian ([8]; Preemergence, 62 g ai/ha): 90
Plant response rating, Ryegrass, Italian [8, 17]: 95
Plant response rating, Ryegrass, Italian [8, 18]: 98
Plant response rating, Ryegrass, Italian [8, 19]: 85
Buckwheat, Wild plant response rating [9, 14]: 65
Plant response rating, Buckwheat, Wild [9, 15]: 100
Plant response rating, Buckwheat, Wild [9, 16]: 100
Plant response rating (scale of 0 to 100), Buckwheat, Wild ([9]; Preemergence, 31 g ai/ha): 15
Plant response rating, Buckwheat, Wild [9, 20]: 5
Plant response rating, Buckwheat, Wild [9, 17]: 5
Plant response rating, Buckwheat, Wild [9, 18]: 25
Plant response rating, Buckwheat, Wild [9, 19]: 95
Bromegrass, Downy plant response rating [10, 14]: 10
Plant response rating, Bromegrass, Downy [10, 15]: 25
Plant response rating, Bromegrass, Downy [10, 16]: 65
Plant response rating (scale of 0 to 100), Bromegrass, Downy ([10]; Preemergence, 31 g ai/ha): 35
Plant response rating, Bromegrass, Downy [10, 20]: 65
Plant response rating, Bromegrass, Downy [10, 17]: 70
Plant response rating, Bromegrass, Downy [10, 18]: 75
Plant response rating, Bromegrass, Downy [10, 19]: 20
Windgrass plant response rating [11, 14]: 60
Plant response rating, Windgrass [11, 15]: 80
Plant response rating, Windgrass [11, 16]: 85
Plant response rating (scale of 0 to 100), Windgrass ([11]; Preemergence, 31 g ai/ha): 75
Plant response rating (scale of 0 to 100), Windgrass ([11]; Preemergence, 62 g ai/ha): 80
Plant response rating, Windgrass [11, 17]: 80
Plant response rating, Windgrass [11, 18]: 95
Plant response rating, Windgrass [11, 19]: 70
Blackgrass plant response rating [12, 14]: 15
Plant response rating, Blackgrass [12, 15]: 65
Plant response rating, Blackgrass [12, 16]: 65
Plant response rating (scale of 0 to 100), Blackgrass ([12]; Preemergence, 31 g ai/ha): 35
Plant response rating, Blackgrass [12, 20]: 50
Plant response rating, Blackgrass [12, 17]: 60
Plant response rating, Blackgrass [12, 18]: 75
Plant response rating, Blackgrass [12, 19]: 25
Foxtail, Green plant response rating [13, 14]: 70
Plant response rating, Foxtail, Green [13, 15]: 75
Plant response rating, Foxtail, Green [13, 16]: 80
Plant response rating (scale of 0 to 100), Foxtail, Green ([13]; Preemergence, 31 g ai/ha): 45
Plant response rating (scale of 0 to 100), Foxtail, Green ([13]; Preemergence, 62 g ai/ha): 55
Plant response rating, Foxtail, Green [13, 17]: 65
Plant response rating, Foxtail, Green [13, 18]: 100
Plant response rating, Foxtail, Green [13, 19]: 70
